Source: a compilation of properties of binary mixtures
One block for each compound: values may come before it.

Experiment: xn = mol fraction of the nth substance listed

Structure (SMILES): CCCCC(CC)COC(=O)CC(C(=O)OCC(CC)CCCC)S(=O)(=O)[O-].CCCC[n+]1ccn(C)c1 (configuration not stated) + O
viscosity (313.15 K, 99.6 kPa, x1 = 0.8695): 692 mPa·s
viscosity (323.15 K, 99.6 kPa, x1 = 0.8695): 363 mPa·s
viscosity (333.15 K, 99.6 kPa, x1 = 0.8695): 207 mPa·s

Structure (SMILES): CCCCCCCCCCCCOS(=O)(=O)[O-].CCCC[n+]1ccn(C)c1 + O
viscosity (303 K, 101 kPa, x1 = 0.011): 300 mPa·s
viscosity (303 K, 101 kPa, x1 = 0.0288): 113000 mPa·s
viscosity (303 K, 101 kPa, x1 = 0.0626): 1070000 mPa·s
viscosity (303 K, 101 kPa, x1 = 0.1512): 4200000 mPa·s
viscosity (303 K, 101 kPa, x1 = 1): 1.32e+07 mPa·s
viscosity (333 K, 101 kPa, x1 = 0.011): 25000 mPa·s
viscosity (333 K, 101 kPa, x1 = 0.0288): 335000 mPa·s
viscosity (333 K, 101 kPa, x1 = 0.1512): 1780000 mPa·s

viscosity (293.15 K, 100 kPa, x1 = 0.5): 153.7 mPa·s
Structure (SMILES): Oc1cccnc1 + CCCC[n+]1ccn(C)c1.[Cl-]

Structure (SMILES): CCCC[P+](CC)(CCCC)CCCC.[Br-] + OCCOCCO
viscosity (303.15 K, 101 kPa, x1 = 0.333): 77 mPa·s
viscosity (313.15 K, 101 kPa, x1 = 0.333): 48.93 mPa·s
viscosity (323.15 K, 101 kPa, x1 = 0.333): 32.91 mPa·s
viscosity (343.15 K, 101 kPa, x1 = 0.333): 16.88 mPa·s

Structure (SMILES): CCCCCC[n+]1ccn(C)c1.[Br-] + O
viscosity (298.15 K, 100 kPa, x2 = 0.9487): 2.88 mPa·s

viscosity (298.15 K, 100 kPa, x1 = 0.0172): 1.2 mPa·s
viscosity (298.15 K, 100 kPa, x1 = 0.0301): 1.28 mPa·s
viscosity (298.15 K, 100 kPa, x1 = 0.0456): 1.76 mPa·s
viscosity (298.15 K, 100 kPa, x1 = 0.0985): 6.58 mPa·s
Structure (SMILES): CC(O)C(=O)[O-].CN(C)CCOCC[NH+](C)C + O

Structure (SMILES): CC[n+]1ccn(C)c1.[Cl-] + CC#N
viscosity (373 K, 100 kPa, x2 = 0): 36 mPa·s
viscosity (373 K, 100 kPa, x2 = 0.158): 19 mPa·s
viscosity (373 K, 100 kPa, x2 = 0.472): 7 mPa·s
viscosity (373 K, 100 kPa, x2 = 0.781): 3 mPa·s

viscosity (318.15 K, 100 kPa, x1 = 0.333): 178 mPa·s
Structure (SMILES): CCCCC[N+](CCCCC)(CCCCC)CCCCC.[Br-] + CCCCCCCCCC(=O)O

viscosity (313.15 K, 101.3 kPa, x2 = 0.667): 80.8 mPa·s
viscosity (323.15 K, 101.3 kPa, x2 = 0.667): 49.2 mPa·s
viscosity (333.15 K, 101.3 kPa, x2 = 0.667): 33.5 mPa·s
viscosity (343.15 K, 101.3 kPa, x2 = 0.667): 23.06 mPa·s
viscosity (353.15 K, 101.3 kPa, x2 = 0.667): 17.84 mPa·s
Structure (SMILES): O=C(O)CC(=O)O + CC[n+]1ccn(C)c1.[Cl-]

Structure (SMILES): CCCO + C=CC[n+]1ccn(C)c1.O=S(=O)([N-]S(=O)(=O)C(F)(F)F)C(F)(F)F
viscosity (298.15 K, 100 kPa, x2 = 0): 1.91 mPa·s

electrical conductivity (288.15 K, 100 kPa, x1 = 1): 0.0217 S/m
electrical conductivity (318.15 K, 100 kPa, x1 = 1): 0.0402 S/m
Structure (SMILES): O + CCCC[n+]1ccn(C)c1.F[B-](F)(F)F

Structure (SMILES): CCCCCCCCn1cc[n+](C)c1C.F[P-](F)(F)(F)(F)F + CCCCCCCC[n+]1ccn(C)c1.F[P-](F)(F)(F)(F)F
viscosity (303.15 K, 100 kPa, x2 = 0.5): 440 mPa·s
viscosity (313.15 K, 100 kPa, x2 = 0.5): 241 mPa·s
viscosity (323.15 K, 100 kPa, x2 = 0.5): 144 mPa·s

Structure (SMILES): CC[NH3+].O=[N+]([O-])[O-] + CO
viscosity (293.15 K, 101 kPa, x2 = 0): 44.9 mPa·s
viscosity (293.15 K, 101 kPa, x2 = 0.4): 13.8 mPa·s

Structure (SMILES): C[N+](C)(C)CCO.O=C([O-])[C@@H]1CCCN1 + O
viscosity (308.15 K, 100 kPa, x1 = 0.0043): 0.91 mPa·s
viscosity (308.15 K, 100 kPa, x1 = 0.0342): 2.01 mPa·s
viscosity (323.15 K, 100 kPa, x1 = 0.0202): 1.11 mPa·s
viscosity (323.15 K, 100 kPa, x1 = 0.0342): 1.52 mPa·s
viscosity (338.15 K, 100 kPa, x1 = 0.0202): 1 mPa·s
viscosity (353.15 K, 100 kPa, x1 = 0.0202): 0.88 mPa·s
viscosity (353.15 K, 100 kPa, x1 = 0.0342): 0.98 mPa·s

Structure (SMILES): C=CC[n+]1ccn(C)c1.O=S(=O)([N-]S(=O)(=O)C(F)(F)F)C(F)(F)F + CCCO
viscosity (298.15 K, 100 kPa, x1 = 0.1): 3.31 mPa·s
viscosity (298.15 K, 100 kPa, x1 = 0.3): 6.61 mPa·s
viscosity (298.15 K, 100 kPa, x1 = 0.4): 8.51 mPa·s
viscosity (298.15 K, 100 kPa, x1 = 0.6): 13.42 mPa·s
viscosity (298.15 K, 100 kPa, x1 = 1): 34.3 mPa·s

speed of sound (313.15 K, 100 kPa, x1 = 0.3333): 1870.1 m/s
Structure (SMILES): CC[N+]1(C)CCCC1.[Br-] + OCC(O)CO

Structure (SMILES): CCCC[n+]1ccn(C)c1.F[P-](F)(F)(F)(F)F + CC(C)=O
electrical conductivity (296.15 K, 101 kPa, x2 = 0.3522): 0.84 S/m
electrical conductivity (296.15 K, 101 kPa, x2 = 0.8801): 3.91 S/m
electrical conductivity (296.15 K, 101 kPa, x2 = 0.9514): 2.99 S/m
electrical conductivity (296.15 K, 101 kPa, x2 = 0.9778): 1.73 S/m

Structure (SMILES): CCCCCCCCCC[n+]1ccn(C)c1.O=S(=O)([N-]S(=O)(=O)C(F)(F)F)C(F)(F)F + O
viscosity (293.15 K, 101 kPa, x2 = 0.204): 105 mPa·s
electrical conductivity (295.15 K, 101 kPa, x2 = 0.204): 0.15 S/m

Structure (SMILES): CCn1cc[nH+]c1.O=S(=O)([N-]S(=O)(=O)C(F)(F)F)C(F)(F)F + O
viscosity (297.55 K, 101 kPa, x1 = 0.359): 11.2 mPa·s
viscosity (297.55 K, 101 kPa, x1 = 0.667): 24.1 mPa·s
viscosity (297.55 K, 101 kPa, x1 = 0.8): 32.7 mPa·s
viscosity (297.55 K, 101 kPa, x1 = 0.941): 50.8 mPa·s
viscosity (297.55 K, 101 kPa, x1 = 1): 57.1 mPa·s

viscosity (298.15 K, 101.3 kPa, x1 = 0.333): 93.4 mPa·s
viscosity (303.15 K, 101.3 kPa, x1 = 0.333): 72.4 mPa·s
viscosity (308.15 K, 101.3 kPa, x1 = 0.333): 56.9 mPa·s
viscosity (313.15 K, 101.3 kPa, x1 = 0.333): 45.3 mPa·s
viscosity (318.15 K, 101.3 kPa, x1 = 0.333): 36.6 mPa·s
Structure (SMILES): CCCC[P+](CCCC)(CCCC)CCCC.[Br-] + OCCO

viscosity (298 K, 100 kPa, x1 = 0.5): 140 mPa·s
Structure (SMILES): CCCC[P+](CCCC)(CCCC)CCCC.[Cl-] + CCC(=O)O

Structure (SMILES): CCn1cc[n+](C)c1.O=S(=O)([O-])C(F)(F)C(F)(F)C(F)(F)C(F)(F)F + O
viscosity (298.15 K, 101.3 kPa, x1 = 0.0001): 1.038 mPa·s
viscosity (298.15 K, 101.3 kPa, x1 = 0.0005): 1.111 mPa·s
viscosity (298.15 K, 101.3 kPa, x1 = 0.0011): 1.091 mPa·s
viscosity (298.15 K, 101.3 kPa, x1 = 0.0018): 1.164 mPa·s
viscosity (298.15 K, 101.3 kPa, x1 = 0.0049): 1.367 mPa·s
viscosity (298.15 K, 101.3 kPa, x1 = 0.0109): 1.96 mPa·s
viscosity (298.15 K, 101.3 kPa, x2 = 0.9783): 3.03 mPa·s

Structure (SMILES): c1ccccc1 + CCCCCCCCn1cc[n+](C)c1.O=S(=O)([N-]S(=O)(=O)C(F)(F)F)C(F)(F)F
viscosity (293 K, 101 kPa, x2 = 0): 0.641 mPa·s

speed of sound (298.15 K, 100 kPa, x1 = 0.002): 1341.9 m/s
speed of sound (298.15 K, 100 kPa, x1 = 0.0052): 1400.4 m/s
speed of sound (298.15 K, 100 kPa, x1 = 0.0073): 1474.1 m/s
Structure (SMILES): CCCC[P+](CCCC)(CCCC)CCCC.F[B-](F)(F)F + C1COCO1

Structure (SMILES): CCCC[n+]1ccn(C)c1.[Br-] + O
viscosity (298.15 K, 100 kPa, x2 = 0.9487): 2.21 mPa·s

Structure (SMILES): CCCC[n+]1ccn(C)c1.[Cl-] + OCC(O)CO
speed of sound (298.15 K, 101 kPa, x2 = 0.333): 1838.8 m/s
speed of sound (303.15 K, 101 kPa, x2 = 0.333): 1826.5 m/s
speed of sound (313.15 K, 101 kPa, x2 = 0.333): 1802.4 m/s

viscosity (293.15 K, 101 kPa, x1 = 0.0066): 1.65 mPa·s
viscosity (293.15 K, 101 kPa, x1 = 0.0152): 2.6 mPa·s
viscosity (293.15 K, 101 kPa, x2 = 0): 1320 mPa·s
viscosity (293.15 K, 101 kPa, x2 = 0.9557): 6.9 mPa·s
Structure (SMILES): CC(C)C[P+](C)(CC(C)C)CC(C)C.Cc1ccc(S(=O)(=O)[O-])cc1 + O

electrical conductivity (298 K, 101 kPa, x1 = 0.0002): 0.475 S/m
electrical conductivity (298 K, 101 kPa, x1 = 0.0004): 0.658 S/m
electrical conductivity (298 K, 101 kPa, x1 = 0.001): 0.921 S/m
electrical conductivity (298 K, 101 kPa, x1 = 0.0016): 1.45 S/m
electrical conductivity (298 K, 101 kPa, x1 = 0.004): 2.04 S/m
electrical conductivity (298 K, 101 kPa, x1 = 0.006): 2.14 S/m
electrical conductivity (298 K, 101 kPa, x1 = 0.008): 2.28 S/m
electrical conductivity (298 K, 101 kPa, x1 = 0.01): 2.32 S/m
Structure (SMILES): CC[N+](CC)(CC)CCCS(=O)(=O)O.F[B-](F)(F)F + O

speed of sound (298.15 K, 100 kPa, x2 = 0.38): 1411 m/s
speed of sound (303.15 K, 100 kPa, x2 = 0.38): 1404.5 m/s
electrical conductivity (303.15 K, 101 kPa, x1 = 0.5): 2.49 S/m
electrical conductivity (303.15 K, 101 kPa, x1 = 0.57): 2.12 S/m
electrical conductivity (303.15 K, 101 kPa, x1 = 0.6): 1.91 S/m
electrical conductivity (303.15 K, 101 kPa, x1 = 0.67): 1.63 S/m
electrical conductivity (306.15 K, 101 kPa, x2 = 0.5): 2.66 S/m
electrical conductivity (306.15 K, 101 kPa, x2 = 0.588): 0.982 S/m
electrical conductivity (306.15 K, 101 kPa, x2 = 0.625): 0.663 S/m
speed of sound (313.15 K, 100 kPa, x2 = 0.38): 1391.8 m/s
speed of sound (318.15 K, 100 kPa, x2 = 0.38): 1385.6 m/s
Structure (SMILES): [Cl][Al]([Cl])[Cl] + CC[n+]1ccn(C)c1.[Cl-]
